The values below come from patent US20100081690A1, “OXAZOLE DERIVATIVES AS POSITIVE ALLOSTERIC MODULATORS OF METABOTROPIC GLUTAMATE RECEPTORS” (ADDEX PHARMA SA, priority 2006, published 2010).

For one data set, the target named is T1, mGluR5 (Rattus norvegicus, UniProt P31424).
T1 construct: positive allosteric modulators of mGluR5 receptors in native preparations; endogenous in cells; host or cells: primary cortical astrocytes from Sprague-Dawley rat embryos (E16-19)
Conditions: Liu et al (2006), Zhang et al (2005); cited from earlier work.

The target of another data set is T2, rat mGluR5 (Rattus norvegicus, UniProt P31424).
T2 construct: expressed in transfected cells
T2 sequence (P31424 21-1171 isoform P31424-2 limits assumed): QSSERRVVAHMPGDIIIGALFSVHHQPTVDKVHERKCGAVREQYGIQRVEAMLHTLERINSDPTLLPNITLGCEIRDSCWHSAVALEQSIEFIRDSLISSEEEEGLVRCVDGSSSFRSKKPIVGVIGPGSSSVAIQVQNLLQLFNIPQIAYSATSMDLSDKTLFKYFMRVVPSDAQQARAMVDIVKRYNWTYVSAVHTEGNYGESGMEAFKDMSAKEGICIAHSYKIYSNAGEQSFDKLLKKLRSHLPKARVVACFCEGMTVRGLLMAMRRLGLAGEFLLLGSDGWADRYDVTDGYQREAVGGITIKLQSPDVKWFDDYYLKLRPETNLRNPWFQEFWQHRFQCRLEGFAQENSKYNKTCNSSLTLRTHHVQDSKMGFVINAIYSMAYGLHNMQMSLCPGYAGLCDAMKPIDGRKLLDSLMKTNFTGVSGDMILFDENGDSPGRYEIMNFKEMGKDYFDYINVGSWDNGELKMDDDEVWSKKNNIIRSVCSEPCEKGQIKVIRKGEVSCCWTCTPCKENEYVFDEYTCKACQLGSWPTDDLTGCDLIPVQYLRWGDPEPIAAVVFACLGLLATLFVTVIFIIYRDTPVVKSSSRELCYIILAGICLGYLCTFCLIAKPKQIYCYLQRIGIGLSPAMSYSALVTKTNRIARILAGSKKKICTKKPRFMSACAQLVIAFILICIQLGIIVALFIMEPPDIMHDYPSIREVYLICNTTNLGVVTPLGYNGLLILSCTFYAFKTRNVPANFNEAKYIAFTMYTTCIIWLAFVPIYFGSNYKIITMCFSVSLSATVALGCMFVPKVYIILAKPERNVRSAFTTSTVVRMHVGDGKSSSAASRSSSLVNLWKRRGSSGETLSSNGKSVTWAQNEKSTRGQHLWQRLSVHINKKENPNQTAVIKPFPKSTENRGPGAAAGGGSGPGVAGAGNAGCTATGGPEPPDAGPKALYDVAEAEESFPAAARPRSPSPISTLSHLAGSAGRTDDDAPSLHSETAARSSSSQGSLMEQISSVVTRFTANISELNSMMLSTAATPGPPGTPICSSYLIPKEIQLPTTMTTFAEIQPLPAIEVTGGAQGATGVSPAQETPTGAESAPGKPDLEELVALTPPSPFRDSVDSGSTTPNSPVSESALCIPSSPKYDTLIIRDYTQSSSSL
Briefly: mGluR5 assay on HEK-expressing rat mGluR5 (fluorescent cell based Ca2+ mobilization). Conditions: for activation of rat mGluR5 receptors: HEK-rat mGluR5 cell line, without co-addition of glutamate or mGluR5 agonist; for EC50: HEK-293 cells stably expressing rat mGluR5, no co-addition of glutamate, mean of at least three independent experiments in duplicate, read-out: Ca2+ Flux (mean EC50). As for the experimental part: Positive functional expression of HEK-293 cells stably expressing rat mGluR5 receptor was determined by measuring intracellular Ca^2+ changes using a Fluorometric Imaging Plate Reader (FLIPR, Molecular Devices, Sunnyvale, Calif.) in response to glutamate or selective known mGluR5 agonists and antagonists. Rat mGluR5RT-PCR products in HEK-293 cells were sequenced and found 100% identical to rat mGluR5Genbank reference sequence (NM_017012). HEK-293 cells expressing rmGluR5 were maintained in media containing DMEM, dialyzed Fetal Bovine Serum (10%), Glutamax™ (2 mM), Penicillin (100 units/ml), Streptomycin (100 μg/ml), Geneticin (100 μg/ml) and Hygromycin-B (40 μg/ml) at 37° C./5% CO2.
After one day of incubation, cells were washed with assay buffer containing: 142 mM NaCl, 6 mM KCl, 1 mM […], 1 mM CaCl2, 20 mM HEPES, 1 g/L glucose, 0.125 mM sulfinpyrazone, pH 7.4. After 60 min of loading with 4 uM Fluo-4 (TefLabs, Austin, Tex.), the cells were washed three times with 50 μl of PBS Buffer and resuspended in 45 μl of assay Buffer. The plates were then transferred to a Fluorometric Imaging Plate Reader (FLIPR, Molecular Devices, Sunnyvale, Calif.) for the assessment of intracellular calcium flux. After monitoring the baseline fluorescence for 10 seconds, increasing concentrations of representative compound (from 0.01 to 60 μM) of the present invention diluted in Assay Buffer (15 μl of 4× dilutions) was added to the cell. The final DMSO concentration in the assay was 0.3%. In each experiment, fluorescence was then monitored as a function of time for 3 minutes and the data analyzed using Microsoft Excel and GraphPad Prism. Each data point was also measured two times.
Under these experimental conditions, this HEK-rat mGluR5 cell line is able to directly detect positive allosteric modulators without the need of co-addition of glutamate or mGluR5 agonist.
The concentration-response curves of representative compounds of the present invention were generated using the Prism GraphPad software (Graph Pad Inc, San Diego, USA). The curves were fitted to a four-parameter logistic equation:
(Y=Bottom+(Top-Bottom)/(1+10̂((Log EC50−X)*Hill Slope)
allowing determination of EC50 values.
The Table 1 below represents the mean EC50 obtained from at least three independent experiments of selected molecules performed in duplicate.
Background: A change in cytosolic calcium serves as a functional read-out for many receptors and channels.

Where only a bound is given, the exact number is not on record here.

T1 sequence (P31424 21-1203): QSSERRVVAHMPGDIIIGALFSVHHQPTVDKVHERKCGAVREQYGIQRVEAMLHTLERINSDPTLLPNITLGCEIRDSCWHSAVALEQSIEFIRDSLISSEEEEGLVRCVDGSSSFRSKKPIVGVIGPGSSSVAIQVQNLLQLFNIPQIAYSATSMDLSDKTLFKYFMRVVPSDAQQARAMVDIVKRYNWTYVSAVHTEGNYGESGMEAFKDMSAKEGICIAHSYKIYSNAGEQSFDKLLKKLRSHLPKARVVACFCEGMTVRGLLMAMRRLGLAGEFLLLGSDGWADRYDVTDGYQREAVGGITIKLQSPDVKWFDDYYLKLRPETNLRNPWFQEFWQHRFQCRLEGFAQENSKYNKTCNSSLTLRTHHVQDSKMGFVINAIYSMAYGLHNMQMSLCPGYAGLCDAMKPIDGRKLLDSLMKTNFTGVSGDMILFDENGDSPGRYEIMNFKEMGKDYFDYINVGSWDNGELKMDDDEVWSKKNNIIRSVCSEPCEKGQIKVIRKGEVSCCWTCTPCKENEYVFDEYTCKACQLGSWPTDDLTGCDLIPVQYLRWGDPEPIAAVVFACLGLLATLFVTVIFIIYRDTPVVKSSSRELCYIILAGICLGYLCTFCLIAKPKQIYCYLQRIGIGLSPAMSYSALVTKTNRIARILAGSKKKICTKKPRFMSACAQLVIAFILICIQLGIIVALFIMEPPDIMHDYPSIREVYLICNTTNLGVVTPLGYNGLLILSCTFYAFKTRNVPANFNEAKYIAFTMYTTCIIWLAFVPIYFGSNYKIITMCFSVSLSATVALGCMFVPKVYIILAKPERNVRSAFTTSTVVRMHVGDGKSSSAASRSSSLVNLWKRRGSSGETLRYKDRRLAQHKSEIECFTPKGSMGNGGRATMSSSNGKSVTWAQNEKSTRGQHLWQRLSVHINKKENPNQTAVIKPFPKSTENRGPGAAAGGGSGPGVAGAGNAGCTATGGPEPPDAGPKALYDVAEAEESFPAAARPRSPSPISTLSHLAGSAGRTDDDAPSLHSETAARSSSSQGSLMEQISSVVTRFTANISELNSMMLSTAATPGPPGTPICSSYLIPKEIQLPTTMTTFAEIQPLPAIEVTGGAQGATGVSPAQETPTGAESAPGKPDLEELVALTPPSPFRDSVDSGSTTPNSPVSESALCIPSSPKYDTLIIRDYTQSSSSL

For the molecule `N#Cc1cccc(C(=O)Nc2cc(-c3ccccc3)nn2-c2ccccc2)c1` [CDPPB, reference compound], the “activity in rat cortical astrocytes culture in the absence of added glutamate” value (“activity” below) on mGluR5 was “inactive”. Moreover, on rat mGluR5, the “activation of rat mGluR5 receptors” value was “activating”.

As to `O=C(Nc1ccc(Cl)cc1CN1C(=O)c2ccccc2C1=O)c1ccccc1O` [CPPHA, reference compound], the “activity” value on mGluR5 was “inactive”. In addition, the “activation of rat mGluR5 receptors” value at rat mGluR5 was “activating”.

Regarding `Fc1cccc(/C=N/N=C/c2cccc(F)c2)c1` [DFB, reference compound], the “activity” value at mGluR5 is “inactive”. The “activation of rat mGluR5 receptors” value at rat mGluR5 is “activating”.

By melting point is commonly meant the temperature of the solid-liquid transition. The term EC50 denotes the concentration giving half of the maximal effect. Consider `O=C(c1ccc(F)nc1)N1CCC[C@H](c2nc(-c3cc(F)c[nH]3)co2)C1` [Example 2, (6-Fluoro-pyridin-3-yl)-{(S)-3-[4-(4-fluoro-1H-pyrrol-2-yl)-oxazol-2-yl]-piperidin-1-yl}-methanone], for which the melting point turned out to be 123 °C. Also, the EC50 on rat mGluR5 was below 1 µM.

For `O=C(c1ccc(F)cc1)N1CCC[C@H](c2nc(-c3ccc(F)cc3)co2)C1` [Example 3, (4-Fluoro-phenyl)-{(S)-3-[4-(4-fluorophenyl)-oxazol-2-yl]-piperidin-1-yl}-methanone], on rat mGluR5, the EC50 was below 1 µM.

With `O=C(c1ccc(F)nc1)N1CCC[C@H](c2nc(-c3ccc(F)cc3)co2)C1` [Example 4, (6-Fluoro-pyridin-3-yl)-{(S)-3-[4-(4-fluoro-phenyl)-oxazol-2-yl]-piperidin-1-yl}-methanone], the EC50 on rat mGluR5 is below 1 µM.

For `O=C(c1ccnc(F)c1)N1CCC[C@H](c2nc(-c3ccc(F)cc3)co2)C1` [Example 5, (2-Fluoro-pyridin-4-yl)-{(S)-3-[4-(4-fluoro-phenyl)-oxazol-2-yl]-piperidin-1-yl}-methanone], the EC50 on rat mGluR5 is below 1 µM.

Take `O=C(c1ccncc1F)N1CCC[C@H](c2nc(-c3ccc(F)cc3)co2)C1` [Example 6, (3-Fluoro-pyridin-4-yl)-{(S)-3-[4-(4-fluoro-phenyl)-oxazol-2-yl]-piperidin-1-yl}-methanone]: the EC50 at rat mGluR5 is below 1 µM.

Regarding `Cc1oncc1C(=O)N1CCC[C@H](c2nc(-c3ccc(F)cc3)co2)C1` [Example 7, (S)-(3-(4-(4-Fluoro-phenyl)-oxazol-2-yl)-piperidin-1-yl)(5-methyl-isoxazol-4-yl)-methanone], the EC50 on rat mGluR5 was below 1 µM.

For `O=C(c1ccc(F)cc1)N1CCC[C@H](c2nc(-c3ccccn3)co2)C1` [Example 8, (S)-(4-Fluoro-phenyl)(3-(4-(pyridin-2-yl)-oxazol-2-yl)-piperidin-1-yl)-methanone], at rat mGluR5, the EC50 was below 1 µM.

As to `O=C(c1ccc(F)c(F)c1)N1CCC[C@H](c2nc(-c3ccccn3)co2)C1` [Example 9, (S)-(3,4-Difluoro-phenyl)(3-(4-(pyridin-2-yl)-oxazol-2-yl)-piperidin-1-yl)-methanone], at rat mGluR5, the EC50 is below 1 µM.

`O=C(c1ccc(F)cc1)N1CCC[C@H](c2nc(-c3ccc(F)cn3)co2)C1` [Example 10, (S)-(4-Fluoro-phenyl)(3-(4-(5-fluoro-pyridin-2-yl)-oxazol-2-yl)-piperidin-1-yl)-methanone]: on rat mGluR5, the EC50 was below 1 µM.

For `O=C(c1ccc(F)cc1)N1CCC[C@H](c2nc(-c3ccccc3F)co2)C1` [Example 11, (S)-(4-Fluoro-phenyl)(3-(4-(2-fluoro-phenyl)-oxazol-2-yl)-piperidin-1-yl)-methanone], at rat mGluR5, the EC50 was below 1 µM.

As for `O=C(c1ccc(F)nc1)N1CCC[C@H](c2nc(-c3ccccc3F)co2)C1` [Example 12, (S)-(3-(4-(2-Fluoro-phenyl)-oxazol-2-yl)-piperidin-1-yl)(6-fluoro-pyridin-3-yl)-methanone], the EC50 on rat mGluR5 is below 1 µM.

Regarding `O=C(c1ccnc(F)c1)N1CCC[C@H](c2nc(-c3ccccc3F)co2)C1` [Example 13, (S)-(3-(4-(2-Fluoro-phenyl)-oxazol-2-yl)-piperidin-1-yl)(2-fluoro-pyridin-4-yl)-methanone], on rat mGluR5, the EC50 was below 1 µM.

As to `O=C(c1ccc(F)cc1)N1CCC[C@H](c2nc(-c3ccc(F)cc3F)co2)C1` [Example 14, (S)-(3-(4-(2,4-Difluoro-phenyl)-oxazol-2-yl)-piperidin-1-yl)(4-fluoro-phenyl)-methanone], on rat mGluR5, the EC50 is below 1 µM.

Regarding `O=C(c1ccc(F)nc1)N1CCC[C@H](c2nc(-c3ccc(F)cc3F)co2)C1` [Example 15, (S)-(3-(4-(2,4-Difluoro-phenyl)-oxazol-2-yl)-piperidin-1-yl)(6-fluoro-pyridin-3-yl)-methanone], the EC50 at rat mGluR5 was in the range of 1 to 10 µM.

As for `O=C(c1ccnc(F)c1)N1CCC[C@H](c2nc(-c3ccc(F)cc3F)co2)C1` [Example 16, (S)-(3-(4-(2,4-Difluoro-phenyl)-oxazol-2-yl)-piperidin-1-yl)(2-fluoro-pyridin-4-yl)-methanone], the EC50 on rat mGluR5 was below 1 µM.
